Test results: ChEMBL document CHEMBL1151306, “Inhibitory activity of unsaturated fatty acids and anacardic acids toward soluble tissue factor-factor VIIa complex” (J Nat Prod, 1998)
Where “and” joins values, the source holds several entries; their conditions need not be identical. Equal entries are not always repeated.

What was measured:
physchem = conditions: octanol/water
Description: (§1) Octanol-water partition coefficient, log P of the compound

Trypsin [1] = target: T1, Trypsin (Sus scrofa, UniProt P00761)
Description: (§2) Inhibition of pig pancreatic trypsin after 15 mins

[2] = target: Coagulation factor VII/tissue factor (Homo sapiens, UniProt P08709)
Chain of Coagulation factor VII/tissue factor (P08709 61-212 limits assumed): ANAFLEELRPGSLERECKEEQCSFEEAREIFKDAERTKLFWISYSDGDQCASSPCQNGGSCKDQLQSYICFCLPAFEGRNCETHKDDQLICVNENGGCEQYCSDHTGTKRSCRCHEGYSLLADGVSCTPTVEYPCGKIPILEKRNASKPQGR
Chain of Coagulation factor VII/tissue factor (P08709 213-466 limits assumed): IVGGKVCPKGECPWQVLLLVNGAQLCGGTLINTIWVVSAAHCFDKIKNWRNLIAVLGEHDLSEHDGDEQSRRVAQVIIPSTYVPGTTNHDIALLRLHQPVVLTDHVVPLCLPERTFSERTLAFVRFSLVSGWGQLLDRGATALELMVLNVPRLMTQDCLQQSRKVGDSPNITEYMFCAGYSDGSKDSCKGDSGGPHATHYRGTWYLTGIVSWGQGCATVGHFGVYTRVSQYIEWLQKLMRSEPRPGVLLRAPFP
Chain of Coagulation factor VII/tissue factor (P13726 33-295 partner limits assumed): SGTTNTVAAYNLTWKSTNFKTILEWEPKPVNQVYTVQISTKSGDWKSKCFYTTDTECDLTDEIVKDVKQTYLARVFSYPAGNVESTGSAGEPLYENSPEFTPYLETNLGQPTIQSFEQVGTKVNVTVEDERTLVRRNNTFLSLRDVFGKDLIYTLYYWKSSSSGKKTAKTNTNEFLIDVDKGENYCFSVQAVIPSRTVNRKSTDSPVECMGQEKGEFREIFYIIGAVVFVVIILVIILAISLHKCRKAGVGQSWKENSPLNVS
Description: Inhibition of amidolytic activity of human tissue factor/human factor 7a

[3] = octanol/water
Description: as §1

Trypsin [4] = target: T1, Trypsin; remark: listed apart in the source
Description: as §2

T1 sequence (P00761 whole entry): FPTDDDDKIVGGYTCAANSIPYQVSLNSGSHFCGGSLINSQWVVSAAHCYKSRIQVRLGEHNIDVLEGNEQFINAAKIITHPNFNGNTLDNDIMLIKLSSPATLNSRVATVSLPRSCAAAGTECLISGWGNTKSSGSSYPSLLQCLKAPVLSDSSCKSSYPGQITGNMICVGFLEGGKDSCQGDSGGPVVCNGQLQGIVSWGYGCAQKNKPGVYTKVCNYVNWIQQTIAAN

| Structure (SMILES) | logP (physchem; logP) | IC50 (Trypsin [1]) | IC50 [2] | logP [3] | IC50 (Trypsin [4]) | logP (physchem) |
| --- | --- | --- | --- | --- | --- | --- |
| CCCCC/C=C\C/C=C\C/C=C\CCCCC(=O)O [GAMOLENIC ACID] | 2.55 | > 200 µM | 30 µM | – | – | – |
| CCCCC/C=C\C/C=C\CCCCCCCc1cccc(O)c1C(=O)O | 3.72 | > 200 µM | 33 µM | – | – | – |
| CC/C=C\C/C=C\C/C=C\CCCCCCCCCC(=O)O | 3.3 | > 200 µM | 100 µM | – | – | – |
| CCCCCC/C=C\CCCCCCCc1cccc(O)c1C(=O)O [GINGKOLIC ACID] | 3.99 | > 200 µM | 32 µM | – | – | – |
| CCCCC/C=C\C/C=C\C/C=C\C/C=C\CCCC(=O)O [ARACHIDONIC ACID] | – | > 200 µM | 105 µM | – | – | 2.9 |
| CC/C=C\C/C=C\C/C=C\C/C=C\C/C=C\CCCC(=O)O [ICOSAPENT] | 2.48 | > 200 µM | 78 µM | – | – | – |
| CC/C=C\C/C=C\C/C=C\CCCCCCCC(=O)O [LINOLENIC ACID] | 2.51 | > 200 µM | 30 µM | – | – | – |

More lines, main results first:

| logP (physchem; logP) | IC50 (Trypsin [1]) | IC50 [2] | logP [3] | IC50 (Trypsin [4]) | Structure (SMILES) | logP (physchem) |
| --- | --- | --- | --- | --- | --- | --- |
| 3.54 | > 200 µM | 80 µM | – | – | CCCCCCCC/C=C\CCCCCCCC(=O)O [OLEIC ACID] | – |
| 3 | > 200 µM | 41 µM | – | – | CCCCC/C=C\C/C=C\CCCCCCCC(=O)O [LINOLEIC ACID] | – |
| 3.5 | > 200 µM | 75 µM and 30 µM | 3.28 | > 200 µM | CCCCC/C=C\C/C=C\C/C=C\CCCCCCC(=O)O [DIHOMO-GAMMA-LINOLENIC ACID] | – |
| – | > 200 µM | 66 µM | – | – | CCCC/C=C\CCCCCCCC(=O)O [MYRISTOLEIC ACID] | – |
| 2.73 | > 200 µM | 120 µM | – | – | CCCCCC/C=C\CCCCCCCC(=O)O [PALMITOLEIC ACID] | – |
| 2.41 | > 200 µM | 52 µM | – | – | CCCCC/C=C\C/C=C\CCCCCCCCCC(=O)O | – |
